According to publication PMC4745685, “Caffeine affects the biological responses of human hematopoietic cells of myeloid lineage via downregulation of the mTOR pathway and xanthine oxidase activity” (Oncotarget, 2015):

Biological target: T1, xanthine oxidase (XOD) (Bos taurus, UniProt P80457)
T1 construct: gene XDH; purified bovine liver XOD
Test: enzyme kinetics, Lineweaver-Burk analysis with purified bovine liver XOD
Assay type: biochemical

T1 sequence (P80457 2-1332): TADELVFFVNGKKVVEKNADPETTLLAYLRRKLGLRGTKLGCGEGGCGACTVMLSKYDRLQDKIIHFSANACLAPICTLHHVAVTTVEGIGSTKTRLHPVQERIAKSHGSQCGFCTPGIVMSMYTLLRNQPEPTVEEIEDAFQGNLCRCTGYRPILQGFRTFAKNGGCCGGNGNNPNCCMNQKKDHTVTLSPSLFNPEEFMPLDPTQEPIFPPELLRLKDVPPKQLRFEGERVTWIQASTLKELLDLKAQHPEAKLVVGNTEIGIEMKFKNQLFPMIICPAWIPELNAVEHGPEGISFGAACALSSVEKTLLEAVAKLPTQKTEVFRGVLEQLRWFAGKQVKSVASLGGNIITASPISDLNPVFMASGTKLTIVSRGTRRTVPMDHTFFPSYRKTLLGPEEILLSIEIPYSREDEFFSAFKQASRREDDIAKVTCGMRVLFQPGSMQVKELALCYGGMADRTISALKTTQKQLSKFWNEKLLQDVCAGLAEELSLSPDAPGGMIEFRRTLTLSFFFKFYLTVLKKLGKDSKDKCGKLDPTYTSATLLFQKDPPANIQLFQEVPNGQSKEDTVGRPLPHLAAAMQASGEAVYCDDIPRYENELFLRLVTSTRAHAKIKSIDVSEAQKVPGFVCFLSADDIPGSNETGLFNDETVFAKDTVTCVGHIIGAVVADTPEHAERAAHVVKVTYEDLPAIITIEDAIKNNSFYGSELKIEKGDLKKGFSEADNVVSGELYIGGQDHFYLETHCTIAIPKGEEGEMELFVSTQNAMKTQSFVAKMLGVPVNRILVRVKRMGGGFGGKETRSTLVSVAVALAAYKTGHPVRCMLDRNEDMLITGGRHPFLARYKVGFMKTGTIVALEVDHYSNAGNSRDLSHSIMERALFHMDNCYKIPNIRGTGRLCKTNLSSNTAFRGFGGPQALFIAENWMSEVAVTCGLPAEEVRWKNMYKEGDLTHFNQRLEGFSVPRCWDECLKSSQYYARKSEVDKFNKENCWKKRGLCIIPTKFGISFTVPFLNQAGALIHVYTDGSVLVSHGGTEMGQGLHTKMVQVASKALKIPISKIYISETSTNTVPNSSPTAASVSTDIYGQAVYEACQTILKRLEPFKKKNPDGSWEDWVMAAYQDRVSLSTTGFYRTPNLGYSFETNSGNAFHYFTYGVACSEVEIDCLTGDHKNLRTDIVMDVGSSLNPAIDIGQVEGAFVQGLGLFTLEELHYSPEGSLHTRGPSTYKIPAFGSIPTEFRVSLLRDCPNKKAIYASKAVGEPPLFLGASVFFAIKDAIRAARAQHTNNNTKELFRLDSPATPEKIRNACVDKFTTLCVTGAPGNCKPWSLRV

Cn1c(=O)c2c(ncn2C)n(C)c1=O [caffeine, 1,3,7-trimethylxanthine]
Ki: 4.02 mM
